Measured values from publication PMC6348381, “Discovery of an MLLT1/3 YEATS Domain Chemical Probe” (Angewandte Chemie (International Ed. in English), 2018).

Columns and labels:
MLLT3 = molecular target: T1, MLLT3 (Homo sapiens, UniProt P42568); assay: AlphaScreen assay, MLLT3; type: binding; conditions: Figure 1
T1 construct: made in house; host or cells: E. coli Rosetta
Experimental: Figure 1 Identified hit MLLT1/3 inhibitor compound 1.
II.IV Protein Expression and Purification
Human bromodomains were cloned, expressed and purified as previously described. The cloning, expression and purification of human YEATS domains are described as follows; Sequences for the wild type YEATS domains of MLLT1, MLLT3, GAS41 and YEATS2 were cloned into expression vectors (Table S1). E. coli Rosetta cells were grown in TB medium at 37°C. Overexpression was induced after five hours by addition of IPTG to a final concentration of 0.4 mM and cells were incubated at 17°C overnight. Cells were harvested by centrifugation and the cell pellet was resuspended in cold binding buffer (50 mM Tris at pH 7.5, 500 mM NaCl, 20 mM imidazole, 2 mM DTT) on a magnetic stirring plate at 4°C. The suspension was lysed using an Avestin EmulsiFlex-C5 homogeniser (1 pass without pressure, four passes with pressure between 1000-1500 bar). The lysate was clarified via centrifugation at 16,000 rpm at 4°C for 1 hour (JLA-16 rotor in Beckmann Coulter Avanti J-26S XP centrifuge). The supernatant was loaded onto a standard NiNTA column (HisTrap FF, 5 ml, GE Healthcare Lifesciences) on an ÄKTAxpress system (GE). […] Protein concentration was quantified via extinction at […] (NanoDrop ND-1000 Spectrophotometer) and protein identity was verified via SDS-PAGE and LC/MS. […]

YEATS2 = molecular target: T2, YEATS2 (Homo sapiens, UniProt Q9ULM3); assay: AlphaScreen selectivity screen, YEATS2; type: binding
T2 construct: made in house; host or cells: E. coli Rosetta
T2 sequence (Q9ULM3 200-345 limits assumed): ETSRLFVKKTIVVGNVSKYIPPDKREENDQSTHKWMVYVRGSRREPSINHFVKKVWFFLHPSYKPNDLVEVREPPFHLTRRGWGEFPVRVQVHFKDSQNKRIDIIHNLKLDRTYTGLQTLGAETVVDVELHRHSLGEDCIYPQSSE
From the text: IC50 (µM) IC50 (µM) IC50 (µM) IC50 (µM) (µM) (µM) (µM)
Supplementary Table 1. […]

T1 sequence (P42568 1-138 limits assumed): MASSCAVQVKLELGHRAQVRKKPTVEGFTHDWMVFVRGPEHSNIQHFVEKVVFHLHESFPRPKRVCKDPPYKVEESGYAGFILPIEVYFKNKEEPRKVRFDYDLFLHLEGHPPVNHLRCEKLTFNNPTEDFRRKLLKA

SMILES	IC50 (MLLT3)	IC50 (YEATS2)
COC(=O)c1ccc(C(=O)Nc2ccc3[nH]c(CN4CCCCC4)nc3c2)cc1 [Compound 1]	1000 nM	
C[C@H]1CCCN1Cc1nc2cc(NC(=O)c3ccc4c(cnn4C)c3)ccc2[nH]1 [Compound 92]		> 10000 nM
